System: PBMCs recovered from TroVax treated patients
Format: cell-based, human
Details: for most likely HLA restriction: from HLA-type frequency among responding patients; for HLA-type distribution among positive proliferative responses: DQ2: responding patients with HLA type DQ2 / all responding patients; for HLA-type distribution among positive proliferative responses: DQ2 / HLA-type distribution among positive proliferative responses: DQ4 / HLA-type distribution among positive proliferative responses: DQ5 / HLA-type distribution among positive proliferative responses: DQ6 / HLA-type distribution among positive proliferative responses: DQ7 / HLA-type distribution among positive proliferative responses: DQ8 / HLA-type distribution among positive proliferative responses: DQ9 / HLA-type distribution among positive proliferative responses: DR1 / HLA-type distribution among positive proliferative responses: DR4 / HLA-type distribution among positive proliferative responses: DR7 / HLA-type distribution among positive proliferative responses: DR8 / HLA-type distribution among positive proliferative responses: DR9 / HLA-type distribution among positive proliferative responses: DR11 / HLA-type distribution among positive proliferative responses: DR13 / HLA-type distribution among positive proliferative responses: DR15 / HLA-type distribution among positive proliferative responses: DR17 / HLA-type distribution among positive proliferative responses: DR51 / HLA-type distribution among positive proliferative responses: DR52 / HLA-type distribution among positive proliferative responses: DR53: PBMCs from TroVax treated patients; for HLA-type distribution among positive proliferative responses: DQ4: responding patients with HLA type DQ4 / all responding patients; for HLA-type distribution among positive proliferative responses: DQ5: responding patients with HLA type DQ5 / all responding patients; for HLA-type distribution among positive proliferative responses: DQ6: responding patients with HLA type DQ6 / all responding patients; for HLA-type distribution among positive proliferative responses: DQ7: responding patients with HLA type DQ7 / all responding patients; for HLA-type distribution among positive proliferative responses: DQ8: responding patients with HLA type DQ8 / all responding patients; for HLA-type distribution among positive proliferative responses: DQ9: responding patients with HLA type DQ9 / all responding patients; for HLA-type distribution among positive proliferative responses: DR1: responding patients with HLA type DR1 / all responding patients; for HLA-type distribution among positive proliferative responses: DR4: responding patients with HLA type DR4 / all responding patients; for HLA-type distribution among positive proliferative responses: DR7: responding patients with HLA type DR7 / all responding patients; for HLA-type distribution among positive proliferative responses: DR8: responding patients with HLA type DR8 / all responding patients; for HLA-type distribution among positive proliferative responses: DR9: responding patients with HLA type DR9 / all responding patients; for HLA-type distribution among positive proliferative responses: DR11: responding patients with HLA type DR11 / all responding patients; for HLA-type distribution among positive proliferative responses: DR13: responding patients with HLA type DR13 / all responding patients; for HLA-type distribution among positive proliferative responses: DR15: responding patients with HLA type DR15 / all responding patients; for HLA-type distribution among positive proliferative responses: DR17: responding patients with HLA type DR17 / all responding patients; for HLA-type distribution among positive proliferative responses: DR51: responding patients with HLA type DR51 / all responding patients; for HLA-type distribution among positive proliferative responses: DR52: responding patients with HLA type DR52 / all responding patients; for HLA-type distribution among positive proliferative responses: DR53: responding patients with HLA type DR53 / all responding patients
[1] = positive proliferative responses

| Substance | most likely HLA restriction | HLA-type distribution among positive proliferative responses: DQ2 | HLA-type distribution among positive proliferative responses: DQ4 | HLA-type distribution among positive proliferative responses: DQ5 | HLA-type distribution among positive proliferative responses: DQ6 | HLA-type distribution among positive proliferative responses: DQ7 | HLA-type distribution among positive proliferative responses: DQ8 | HLA-type distribution among positive proliferative responses: DQ9 | HLA-type distribution among positive proliferative responses: DR1 | HLA-type distribution among positive proliferative responses: DR4 | HLA-type distribution among positive proliferative responses: DR7 | HLA-type distribution among positive proliferative responses: DR8 | HLA-type distribution among positive proliferative responses: DR9 | HLA-type distribution among positive proliferative responses: DR11 | HLA-type distribution among positive proliferative responses: DR13 | HLA-type distribution among positive proliferative responses: DR15 | HLA-type distribution among positive proliferative responses: DR17 | HLA-type distribution among positive proliferative responses: DR51 | HLA-type distribution among positive proliferative responses: DR52 | HLA-type distribution among positive proliferative responses: DR53 | other results |
| --- | --- | --- | --- | --- | --- | --- | --- | --- | --- | --- | --- | --- | --- | --- | --- | --- | --- | --- | --- | --- | --- |
| 36.2: class II 5T4 20 mer peptide (details in Table 12) (LQGLPHIRVFLDNNPWVCDC) [Peptide 36.2] | DQ2, DR7, or DR53 | 3/7 | 0/7 | 2/7 | 2/7 | 2/7 | 0/7 | 2/7 | 2/7 | 1/7 | 3/7 | 0/7 | 1/7 | 1/7 | 1/7 | 2/7 | 1/7 | 2/7 | 2/7 | 3/7 | responders with HLA type DQ2 out of all responders [1]: 3 out of 7; responders with HLA type DR7 out of all responders [1]: 3 out of 7; responders with HLA type DR53 out of all responders [1]: 3 out of 7 |
| 40.2: class II 5T4 20 mer peptide (details in Table 12) (EVVQGKDRLTCAYPEKMRNR) [Peptide 40.2] | DQ6, DR15, DR51, or DR52 | 5/12 | 1/12 | 2/12 | 8/12 | 3/12 | 0/12 | 2/12 | 1/12 | 1/12 | 3/12 | 1/12 | 1/12 | 1/12 | 3/12 | 6/12 | 3/12 | 6/12 | 6/12 | 4/12 | responders with HLA type DQ6 out of all responders [1]: 8 out of 12; responders with HLA type DR15 out of all responders [1]: 6 out of 12; responders with HLA type DR51 out of all responders [1]: 6 out of 12; responders with HLA type DR52 out of all responders [1]: 6 out of 12 |
| 42.2: class II 5T4 20 mer peptide (details in Table 12) (MRNRVLLELNSADLDCDPIL) [Peptide 42.2] | DQ6, DR51, DQ5, or DR15 | 4/12 | 0/12 | 6/12 | 8/12 | 0/12 | 1/12 | 1/12 | 4/12 | 1/12 | 3/12 | 0/12 | 0/12 | 1/12 | 2/12 | 6/12 | 2/12 | 7/12 | 5/12 | 3/12 | responders with HLA type DQ5 out of all responders [1]: 6 out of 12; responders with HLA type DQ6 out of all responders [1]: 8 out of 12; responders with HLA type DR15 out of all responders [1]: 6 out of 12; responders with HLA type DR51 out of all responders [1]: 7 out of 12 |
| 43.2: class II 5T4 20 mer peptide (details in Table 12) (LNSADLDCDPILPPSLQTSY) [Peptide 43.2] | DQ6, DR15, or DR51 | 5/11 | 1/11 | 3/11 | 7/11 | 1/11 | 0/11 | 1/11 | 2/11 | 0/11 | 4/11 | 1/11 | 0/11 | 1/11 | 2/11 | 6/11 | 2/11 | 6/11 | 4/11 | 3/11 | responders with HLA type DQ6 out of all responders [1]: 7 out of 11; responders with HLA type DR15 out of all responders [1]: 6 out of 11; responders with HLA type DR51 out of all responders [1]: 6 out of 11 |
| 44.2: class II 5T4 20 mer peptide (details in Table 12) (DPILPPSLQTSYVFLGIVLA) [Peptide 44.2] | DQ6, DR15, DR51, or DR52 | 3/9 | 0/9 | 3/9 | 5/9 | 3/9 | 0/9 | 1/9 | 2/9 | 1/9 | 0/9 | 0/9 | 1/9 | 1/9 | 1/9 | 5/9 | 3/9 | 5/9 | 5/9 | 2/9 | responders with HLA type DQ6 out of all responders [1]: 5 out of 9; responders with HLA type DR15 out of all responders [1]: 5 out of 9; responders with HLA type DR51 out of all responders [1]: 5 out of 9; responders with HLA type DR52 out of all responders [1]: 5 out of 9 |
| 45.2: class II 5T4 20 mer peptide (details in Table 12) (MRNRVLLELNSADLDCDPIL) [Peptide 45.2] | DQ6, DR53, DR15, or DR51 | 3/8 | 0/8 | 2/8 | 5/8 | 3/8 | 0/8 | 0/8 | 2/8 | 3/8 | 2/8 | 0/8 | 0/8 | 0/8 | 1/8 | 4/8 | 1/8 | 4/8 | 2/8 | 5/8 | responders with HLA type DQ6 out of all responders [1]: 5 out of 8; responders with HLA type DR15 out of all responders [1]: 4 out of 8; responders with HLA type DR51 out of all responders [1]: 4 out of 8; responders with HLA type DR53 out of all responders [1]: 5 out of 8 |

Reference: patent US8147838B2, “Peptide” (priority 2005, dated 2012)
